Measurements: patent publication US20200032249A1, “LABELING, ISOLATION, & ANALYSIS OF RNA FROM RARE CELL POPULATIONS” (priority 2017, published 2020)
Where two headings read alike, the source gives them in different places.

Tested on: CD/UPRT-expressing cells
Assay type: cell-based
Details: human
Procedure: FIG. 2a-b. Flura-tagging has minimal cytotoxicity. FIG. 2a—Effect of Flura-tagging on stress granule formation. MDA231 cells were treated with 5-FC for the indicated times, and the formation of stress granules was detected by G3BP immunostaining. Control cells were either treated with water or sodium arsenite (Arsenite) for one hour. Arrows indicate stress granules (n=3). Scale bar=20 μM. FIG. 2b—Effect of Flura-tagging on transcription. RNA expression in control cells was compared to CD/UPRT-expressing cells treated with the indicated concentrations of 5-FC for 4 h or 12 h. Each dot represents a gene, with the outer/lighter gray dots indicating genes showing more than 2-fold differential expression, as determined by DESeq2 (n=2). The dotted line represents the four-fold cutoff mark.
For a more sensitive analysis of potential alterations caused by Flura-tagging, we investigated the transcriptional changes occurring under these experimental conditions. We compared the transcriptome of cells treated with two different concentrations of 5-FC (50 μM and 250 μM) at two different time points (4 h and 12 h) with that of control cells, using RNA-seq. […] This number increased to 190, 1325 and 1965 genes in cells treated with 250 μM 5-FC for 4 h, 50 μM 5-FC for 12 h, and 250 μM 5-FC for 12 h, respectively (FIG. 2b). Moreover, a majority of these differences in gene expression were within a four-fold range (FIG. 2b).
RNA-seq library preparation. Total RNA was purified using Qiagen RNeasy Mini Kit. Quality and quantity was checked by Agilent […]. 10 ng RNA per sample was used for library construction with Sample Prep Kit v2 (Illumina) according to manufacturer's instructions. Libraries were multiplex sequenced libraries on a Hiseq2500 platform, and more than 25 million raw paired-end reads were generated for each sample.
Reads were quality checked using FastQC v0.11.5 and mapped to a human (hg19) or hybrid human-mouse (hg19-mm10) genome with STAR2.5.2b (22) using standard settings for paired reads. Uniquely mapped reads were assigned to annotated genes with HTSeq v0.6.1p1 (23) with default settings. Read counts were normalized by library size, and differential gene expression analysis based on a negative binomial distribution was performed using DESeq2 v3.4 (24). In general, thresholds for differential expression were set as follows: adjusted p-value<0.05, fold change >2.0 or <0.5, and average normalized read count >10. Genes were considered detectable in the immunoprecipitation samples with a normalized read count >100. Gene set enrichment analysis was performed using GSVA v3.4 (25) and previously curated gene sets (26): HALLMARK_TGF_BETA_SIGNALING, HALLMARK_HEDGEHOG_SIGNALING, HALLMARK_WNT_BETA_CATENIN_SIGNALING, HALLMARK_PI3_K_AKT_MTOR_SIGNALING, HALLMARK_NOTCH_SIGNALING, HALLMARK_KRAS_SIGNALING_UP, CORDENONSI_YAP_CONSERVED_SIGNATURE, HALLMARK_IL6_JAK_STAT3_SIGNALING.

With Nc1nc(=O)[nH]cc1F [5-FC, 5-fluorocytosine] the “genes with more than 4-fold difference” value (4 h, 50 μM) was 10 genes, the “genes with statistically significant differences in expression vs control cells” value (4 h, 50 μM) was 113 genes and the “genes with more than 4-fold difference” value (4 h, 250 μM) was 15 genes. The “genes with statistically significant differences in expression vs control cells” value (4 h, 250 μM) was 190 genes, the “genes with more than 4-fold difference” value (12 h, 50 μM) was 102 genes and the “genes with statistically significant differences in expression vs control cells” value (12 h, 50 μM) was 1325 genes. The “genes with more than 4-fold difference” value (12 h, 250 μM) was 182 genes and the “genes with statistically significant differences in expression vs control cells” value (12 h, 250 μM) was 1965 genes.
